Patent US6444685B1, “N-(4-sulfonylaryl)Cyclylamine 2-hydroxyethylamines as beta-3 adrenergic receptor agonists” (Wyeth, priority 2000, dated 2002)
pEC50: −log10 of the molar value.

Assays:
[1] = biological target: T1, human β3 adrenergic receptor (Homo sapiens, UniProt P13945); assay: cAMP accumulation (SPA) in CHO cells transfected with human β3 adrenergic receptor; type: cell-based; conditions: for pEC50: CHO cells expressing human β3-AR, cAMP, 30 min incubation, 10^−9 M to 10^−5 M, read-out: beta-3 EC50; for beta-3 (IA) maximal response relative to isoproterenol: IA = % activity compound / % activity isoproterenol at 10^−5 M, CHO human β3 cells
T1 construct: Full length β3 AR clones (402 amino acids) containing the last 6 amino acids of hβ3— AR are prepared; expressed in transfected cells; host or cells: CHO cells
T1 sequence (P13945 whole entry): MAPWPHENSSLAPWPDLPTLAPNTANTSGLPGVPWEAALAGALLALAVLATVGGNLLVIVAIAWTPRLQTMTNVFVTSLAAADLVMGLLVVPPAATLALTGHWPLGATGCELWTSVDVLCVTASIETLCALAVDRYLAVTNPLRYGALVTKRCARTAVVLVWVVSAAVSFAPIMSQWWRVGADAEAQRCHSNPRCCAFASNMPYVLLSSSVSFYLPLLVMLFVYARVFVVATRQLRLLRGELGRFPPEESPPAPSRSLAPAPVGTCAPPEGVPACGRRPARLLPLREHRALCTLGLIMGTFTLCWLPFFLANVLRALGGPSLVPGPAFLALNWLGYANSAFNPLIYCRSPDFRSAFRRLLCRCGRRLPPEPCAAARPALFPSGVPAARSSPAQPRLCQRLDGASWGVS
How it was run: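 CHO cells expressing human β3-AR (70–110 fmol/mg protein) treated with compound at 10^−9 to 10^−5 M in DMEM with 250 μM IBMX and 1 mM ascorbic acid, 30 min, 37 °C. cAMP measured by SPA; EC50 derived, and intrinsic activity expressed relative to the maximal response of 10^−5 M isoproterenol.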

[2] = biological target: T2, human β2-adrenergic receptor (Homo sapiens, UniProt P07550); assay: cAMP accumulation (SPA) in CHO cells transfected with human β2 adrenergic receptor; type: cell-based; conditions: for pEC50: CHO cells transfected with human β2-AR, cAMP, 15 min incubation, 10^−8 to 10^−4 M, read-out: beta-2 EC50; for beta-2 (IA) maximal response relative to isoproterenol: IA = % activity compound / % activity isoproterenol at 10^−5 M, CHO human β2 cells
T2 construct: expressed in transfected cells; host or cells: CHO cells
T2 sequence (P07550 whole entry): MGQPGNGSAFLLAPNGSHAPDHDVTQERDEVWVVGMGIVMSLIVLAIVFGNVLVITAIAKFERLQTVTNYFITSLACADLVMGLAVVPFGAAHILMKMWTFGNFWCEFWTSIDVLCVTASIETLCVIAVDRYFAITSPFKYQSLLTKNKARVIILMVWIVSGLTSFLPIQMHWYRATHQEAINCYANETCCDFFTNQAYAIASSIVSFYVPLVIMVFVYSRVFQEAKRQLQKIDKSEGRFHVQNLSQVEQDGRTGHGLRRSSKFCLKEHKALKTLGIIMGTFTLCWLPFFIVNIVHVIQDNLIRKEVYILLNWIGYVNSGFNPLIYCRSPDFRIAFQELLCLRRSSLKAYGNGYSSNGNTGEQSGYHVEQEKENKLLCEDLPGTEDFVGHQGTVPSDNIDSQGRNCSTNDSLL
How it was run: (§1)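 CHO cell clones expressing 70–110 fmol/mg protein of receptor were pre-incubated 30 min at 37 °C, then treated 15 min at 37 °C with compound (10^−8 to 10^−4 M) in DMEM with 250 μM IBMX and 1 mM ascorbic acid. cAMP was read by SPA after acid stop. EC50 and IA were expressed relative to maximal 10^−5 M isoproterenol response.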

[3] = biological target: T3, human β1-adrenergic receptor (Homo sapiens, UniProt P08588); assay: cAMP accumulation (SPA) in CHO cells transfected with human β1 adrenergic receptor; type: cell-based; conditions: for pEC50: CHO cells transfected with human β1-AR, cAMP, 15 min incubation, 10^−8 to 10^−4 M, read-out: beta-1 EC50; for beta-1 (IA) maximal response relative to isoproterenol: IA = % activity compound / % activity isoproterenol at 10^−5 M, CHO human β1 cells
T3 construct: expressed in transfected cells; host or cells: CHO cells
T3 sequence (P08588 whole entry): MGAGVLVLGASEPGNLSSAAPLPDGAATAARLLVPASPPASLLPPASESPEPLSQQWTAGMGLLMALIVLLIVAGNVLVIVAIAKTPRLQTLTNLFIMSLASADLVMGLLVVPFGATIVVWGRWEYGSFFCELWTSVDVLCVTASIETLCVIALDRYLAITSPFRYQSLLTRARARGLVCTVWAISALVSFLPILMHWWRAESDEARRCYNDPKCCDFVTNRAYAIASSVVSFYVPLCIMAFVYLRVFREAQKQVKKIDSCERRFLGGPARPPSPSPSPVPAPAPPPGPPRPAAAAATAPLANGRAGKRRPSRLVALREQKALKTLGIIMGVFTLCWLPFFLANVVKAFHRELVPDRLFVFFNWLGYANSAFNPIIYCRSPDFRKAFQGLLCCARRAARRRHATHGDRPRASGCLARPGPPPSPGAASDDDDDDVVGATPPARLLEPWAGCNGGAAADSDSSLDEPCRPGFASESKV
How it was run: as §1

melting point [°C]	pEC50 [1]	beta-3 (IA) maximal response relative to isoproterenol [1]	pEC50 [2]	beta-2 (IA) maximal response relative to isoproterenol [2]	pEC50 [3]	beta-1 (IA) maximal response relative to isoproterenol [3]	SMILES
62 to 69	9.00	(1)	6.19	(0.82)	7.22	(0.88)	CS(=O)(=O)Nc1cc([C@@H](O)CNC2CCN(c3ccc(S(=O)(=O)N4CCC[C@@H]4C(=O)OCc4ccccc4)cc3)CC2)ccc1O [Example 21, (2R)-1-(4-{4-[(2R)-2-Hydroxy-2-(4-hydroxy-3-methanesulfonylamino-phenyl)-ethylamino]-piperidin-1-yl}-benzenesulfonyl)-pyrrolidine-2-carboxylic Acid Benzyl Ester]
94 to 95	7.80	(1)	5.78	(0.89)	5.88	(0.68)	CCCCN(CC(=O)OCC)S(=O)(=O)c1ccc(N2CCC(NC[C@H](O)c3ccc(O)c(NS(C)(=O)=O)c3)CC2)cc1 [Example 23, [Butyl-(4-{4-[(2R)-2-hydroxy-2-(4-hydroxy-3-methanesulfonylamino-phenyl)-ethylamino]-piperidin-1-yl}-benzenesulfonyl)-amino]-acetic Acid Ethyl Ester]
91 to 92	8.40	(1.1)	5.23	(0.22)	–	(0.11)	CCOC(=O)CN1CCN(S(=O)(=O)c2ccc(N3CCC(NC[C@H](O)c4ccc(O)c(NS(C)(=O)=O)c4)CC3)cc2)CC1 [Example 64, Ethyl {4-((4-{4-[((2R)-2-Hydroxy-2-{4-hydroxy-3-[(methylsulfonyl)amino]-phenyl}ethyl)amino]piperidin-1-yl}phenyl)sulfonyl]piperazin-1-yl}acetate]
105 to 107	7.85	(1)	5.80	(0.27)	5.02	(0.31)	CCOC(=O)CNS(=O)(=O)c1ccc(N2CCC(NC[C@H](O)c3ccc(O)c(NS(C)(=O)=O)c3)CC2)cc1 [Example 56, Ethyl 2-{[(4-{4-[((2R)-2-Hydroxy-2-{4-hydroxy-3-[(methylsulfonyl)amino]-phenyl}ethyl)amino]-1-piperidinyl}phenyl)sulfonyl]amino}acetate]
98 to 105	7.96	(1)	5.41	(0.31)	5.44	(0.65)	CCOC(=O)NC(=O)CNS(=O)(=O)c1ccc(N2CCC(NC[C@H](O)c3ccc(O)c(NS(C)(=O)=O)c3)CC2)cc1 [Example 58, Ethyl 2-{[(4-{4-[((2R)-2-Hydroxy-2-{4-hydroxy-3-((methylsulfonyl)amino]-phenyl}ethyl)amino]piperidin-1-yl}phenyl)sulfonyl]amino}acetylcarbamate]
113 to 115	8.22	(1)	6.32	(0.65)	6.02	(0.48)	CC(C)(C)OC(=O)CNS(=O)(=O)c1ccc(N2CCC(NC[C@H](O)c3ccc(O)c(NS(C)(=O)=O)c3)CC2)cc1 [Example 52, tert-Butyl 2-{[(4-{4-[((2R)-2-hydroxy-2-{4-hydroxy-3-[(methylsulfonyl)amino]-phenyl}ethyl)amino]-1-piperidinyl}phenyl)sulfonyl]amino}acetate]
78 to 81	7.48	(0.88)	6.00	(0.68)	6.00	(0.35)	CS(=O)(=O)Nc1cc([C@@H](O)CNC2CCN(c3ccc(S(=O)(=O)NCCO)cc3)CC2)ccc1O [Example 24, N-(2-Hydroxyethyl)-4-{4-[(2R)-2-hydroxy-2-(4-hydroxy-3-methanesulfonylamino-phenyl)-ethylamino]-piperidin-1-yl)-benzenesulfonamide]
110 to 115	7.82	(0.98)	4.92	(0.2)	5.11	(0.52)	COC(=O)N(CC(=O)OC(C)(C)C)S(=O)(=O)c1ccc(N2CCC(NC[C@H](O)c3ccc(O)c(NS(C)(=O)=O)c3)CC2)cc1 [Example 59, tert-Butyl [[(4-{4-[((2R)-2-Hydroxy-2-{4-hydroxy-3-[(methylsulfonyl)amino]-phenyl}ethyl)amino]piperidin-1-yl}phenyl)sulfonyl](methoxycarbonyl)-amino]acetate]
175 to 177	6.23	(1)	5.00	(0.54)	5.00	(0.26)	CC#CCC(CC#CC)(C(=O)O)S(=O)(=O)c1ccc(N2CCC(NC[C@H](O)c3ccc(O)c(NS(C)(=O)=O)c3)CC2)cc1 [Example 48, 2-(2-Butynyl)-2-[(4-{4-[((2R)-2-hydroxy-2-{4-hydroxy-3-[(methylsulfonyl)amino]phenyl}ethyl)amino]-1-piperidinyl}phenyl)sulfonyl]-4-hexynoicacid]
115 to 118	9.00	(1)	6.15	(0.63)	7.70	(0.74)	Cc1ccc(S(=O)(=O)c2ccc(N3CCC(NCC(O)c4ccc(O)c(NS(C)(=O)=O)c4)CC3)cc2)cc1 (centres unmarked) [Example 45, N-[2-Hydroxy-5-(1-hydroxy-2-{1-[4-(toluene-4-sulfonyl)-phenyl]-piperidin-4-ylamino}-ethyl)-phenyl]-methanesulfonamide]
59 to 64	8.15	(1)	–	(0.2)	6.10	(0.54)	CCCCN(CC(=O)OCc1ccccc1)S(=O)(=O)c1ccc(N2CCC(NC[C@H](O)c3ccc(O)c(NS(C)(=O)=O)c3)CC2)cc1 [Example 19, [Butyl-(4-{4-[(2R)-2-hydroxy-2-(4-hydroxy-3-methanesulfonylamino-phenyl)-ethylamino]-piperidin-1-yl}-benzenesulfonyl)-amino]-acetic Acid Benzyl Ester]
71 to 75	9.00	(1.3)	6.77	(0.53)	6.19	(1)	CCCCNS(=O)(=O)c1ccc(N2CCC(NC[C@H](O)c3ccc(O)c(NS(C)(=O)=O)c3)CC2)cc1 [Example 14, N-Butyl-4-{4-[(2R)-2-hydroxy-2-(4-hydroxy-3-methanesulfonylamino-phenyl)-ethylamino]-piperidin-1-yl}-benzenesulfonamide]

SMILES	melting point [°C]	pEC50 [1]	beta-3 (IA) maximal response relative to isoproterenol [1]	pEC50 [2]	beta-2 (IA) maximal response relative to isoproterenol [2]	pEC50 [3]	beta-1 (IA) maximal response relative to isoproterenol [3]
CC(C)(C)OC(=O)CN(CC(=O)OC(C)(C)C)S(=O)(=O)c1ccc(N2CCC(NC[C@H](O)c3ccc(O)c(NS(C)(=O)=O)c3)CC2)cc1 [Example 54, tert-Butyl 2-{[2-(tert-butoxy)-2-oxoethyl][(4-{4-[((2R)-2-hydroxy-2-{4-hydroxy-3-[(methylsulfonyl)amino]phenyl}ethyl)amino]-1-piperidinyl}-phenyl)sulfonyl]amino}acetate]	164 to 166	7.85	(1.2)	4.92	(0.42)	5.64	(0.33)
